Experimental data published in patent US10668059B2, “Compositions and methods for the prevention and treatment of mast cell-induced vascular leakage” (Duke University, priority 2012, dated 2020).

Key:
DENV [1] = assay: Evans Blue perfusion model of DENV-induced vascular leakage in WT mice; type: in vivo; settings: i.p. 1×10^6 pfu DENV, 1 day after infection, versus uninfected baseline
Method: Uninfected mice, or mice infected with 1×10^6 pfu of DENV were injected with 100 μL of 5% Evans Blue dye 30 minutes prior to euthanasia. […] This contrast is particularly striking in the liver, a Dengue-target organ.
(§1) Serum was obtained from uninfected mice, DENV-infected and untreated mice, and mice that received MC-stabilizing or MC-product targeting treatments 24 hr after infection. Error bars represent the SEM of values obtained from individual animals n≥3.
As expected, Sash mice, which are MC-deficient model (see, e.g., Grimbaldestron, M. A. et al. (2005) Am. J. Pathol. 167:835-848), have undetectable serum levels of MCPT1 as baseline, as do uninfected congenic wild-type (WT) controls (FIG. 2A). To examine vascular leakage, mice infected with DENV were injected by tail vein with the tracking dye, Evans Blue, 30 minutes prior to euthanasia at a 24 hr time point.
Using this Evans Blue perfusion model, the extent of vascular leakage induced in 24 hr after i.p. instillation of 1×10^6 plaque-forming units (pfu) of DENV in WT and Sash mice was determined. […]
Due to the contributions of MCs to many pathological inflammatory disorders, there are a number of available drugs that target MCs or products that they produce after activation. […] Drugs were administered once, 30 minutes after i.p. instillation of 1×106 DENV and vascular leakage assessed 1 day after infection.

DENV [2] = assay: Hematocrit analysis in DENV-infected WT mice; type: in vivo; settings: i.p. 1×10^6 pfu DENV, 1 day after infection, versus uninfected baseline
Method: as §1
To support the observation of increased dye leakage, hematocrit analysis was also performed using blood samples from mice. This test is one that is used in some cases to diagnose DENV pathology clinically by measuring the packed red blood cell volume from the blood and, therefore, it is a measure of plasma loss (see, e.g., Special Programme for Research and Training in Tropical Diseases, WHO Dengue: guidelines for diagnosis, treatment, prevention, and control. (2009) New ed. Geneva:TDR:World Health Organization). […] These findings cumulatively point to a pivotal role for MCs in promoting DENV-induced increased in vascular permeability.
Due to the contributions of MCs to many pathological inflammatory disorders, there are a number of available drugs that target MCs or products that they produce after activation. […] This hypothesis was tested by blocking DENV induced vascular leakage using a panel of such drugs. […] Drugs were administered once, 30 minutes after i.p. instillation of 1×106 DENV and vascular leakage assessed 1 day after infection.

Structure (SMILES): CN1CCC(=C2c3ccccc3CC(=O)c3sccc32)CC1 [ketotifen]
- levels of tissue dye detection compared to baseline levels (DENV [1]): not statistically different from baseline levels
- hematocrit values compared to baseline levels (DENV [2]): not statistically different from baseline levels
